Source: US11352399B2, “Peptide for toll-like receptor (TLR) inhibition and pharmaceutical composition comprising same” (GENESEN CO., LTD., priority 2017, dated 2022)

Assays:
TLR1/2 = target: T1, TLR1/2 (Mus musculus, UniProt Q9EPQ1+Q9QUN7); assay: TNF-α secretion in RAW 264.7 cells with PAM3CSK4; format: cell-based
T1 construct: host or cells: RAW 264.7

[1] = tested on: mBMDM cells (Poly(I:C)-induced); assay: Poly(I:C)-induced IFN-β generation in mBMDM cells; format: cell-based, mouse
RAW 264.7 cells = assay: Intracytoplasmic NO and ROS (DAF-FM, DCF-DA) in RAW 264.7 cells; format: cell-based, mouse; details: TIP1 and LPS
Method: RAW 264.7 cells were dispensed into 6-cm dishes (SPL Life Sciences, Pocheon, Korea) to a cell number of 1×10^6 cells/well and incubation was performed overnight. Subsequently, treatment with TIP1 was performed and respective staining with DAF-FM and DCF-DA (Thermo Fisher Scientific, Inc.) was performed. Then, incubation was performed for 1 hour. Thereafter, the cells were collected by centrifugation at 200×g for 5 minutes, transferred to brown tubes, and stored in PBS at a temperature of 4° C. The intensities of DAF-FM, DCF-DA fluorescent materials were measured using FACSAria III with Diva software (BD Biosciences), and quantified.
In addition, according to the method described in Example 2-7, a NO level in the culture supernatant of RAW 264.7 cells was measured using a NO detection kit. The results are illustrated in FIGS. 5(a)-5(c).

hTLR4 (human TLR4) = target: T2, hTLR4 (human TLR4) (Homo sapiens, UniProt O00206); assay: SEAP activity (NF-κB activity) in HEK-Blue-hTLR4 cells; format: cell-based
T2 construct: host or cells: HEK-Blue-hTLR4 (HEK293-derived reporter line)
Method: HEK-Blue™-hTLR4 cells were dispensed into 24-well plates (BD Biosciences) to a cell number of 2×10^5 cells/well, and incubation was performed overnight. The next day, the culture was removed and medium replacement was performed. Then, a portion (200 μl) of the culture was transferred to a microcentrifuge tube and heated at 65° C. for 10 minutes using a heating block (FINEPCR. Co., Seoul, Korea). Subsequently, the culture was transferred to 96-well plates (BD Biosciences), and absorbance was measured at 405 nm using the HEK-Blue™ detection kit (InvivoGen) and a microplate reader spectrophotometer (Molecular Devices Inc., Silicon Valley, Calif., USA), to analyze an expression level of SEAP (secreted alkaline phosphatase).
To this end, the inducible secreted embryonic alkaline phosphatase (SEAP) reporter gene was placed under the control of an IL-12 p40 minimal promoter (IL-12 p40 is produced by activation of NF-κB and AP-1 (activator protein 1) after stimulation of TLR4) which contains sites where DNAs of NF-κB and AP-1 bind. Then, HEK-Blue™-hTLR4 cells were treated with varying concentrations of TIP or TIP (TIP W/O CPP), to which CPP is not linked, at 12.5, 25, 50 μM, and then an average value of SEAP activity was calculated to measure TLR4 activity. The results are illustrated in FIGS. 1(a) and 1(b).
The results are illustrated in FIGS. 12(a) and 12(b).

NLRP3 inflammasome [2] = assay: IL-1β secretion (ELISA) in LPS/ATP-treated mBMDM cells; format: cell-based, mouse; details: TIP1 and LPS/ATP
[3] = tested on: LPS-injected C57BL/6J mice; assay: Plasma cytokine secretion in LPS-injected mice; format: in vivo, mouse; details: TIP1 10 nmol/g i.p., 1 hour later LPS 5 μg/g, blood 1 or 2 hours
Method: All animal experiments were conducted under approval of the Institutional Animal Care and Use Committee (KHNMC AP 2016-006). […] The control was injected with the same volume of PBS. Subsequently, the plasma was isolated through centrifugation from the mouse blood and stored at −80° C. until analysis of secretion levels. TNF-α, IL-12p40 (diluted at 1:100), and IL-6 (diluted at 1:100) levels in the plasma were measured using mouse TNF-α, IL-12p40, IL-6 ELISA MAX Deluxe ELISA kits (BioLegend, San Diego, Calif., USA). Absorbance was measured at 450 nm using a microplate reader spectrophotometer (Molecular Devices In.), and the results were analyzed using Softmax Pro 5.3 software (Molecular Devices Inc.). The results are illustrated in FIGS. 14(a)-14(c).

NLRP3 inflammasome [4] = assay: Western blotting of NLRP3 inflammasome molecules in LPS/ATP-treated THP1 cells; format: cell-based, human
NF-κB (p-p65) = assay: Confocal microscopy of NF-κB activity (p-p65) in LPS-treated RAW 264.7 cells; format: cell-based, mouse; details: LPS together with TIP1, FIG. 3
Method: RAW 264.7 cells and THP1 cells were dispensed into 24-well plates to a cell number of 2×10^5 cells/well, and then grown in an incubator overnight. Subsequently, combined treatment with TIP1 and LPS was performed. After 24 hours, the RAW 264.7 cells and the THP1 cells were fixed with 3.7% formaldehyde (Sigma-Aldrich Co. LLC) for 15 minutes, and immersed into 0.2% Triton X-100 (AMRESCO, Solon, Ohio, USA) for 15 minutes. Then, washing with PBS was performed three times and blocking with 2% BSA solution was performed. The blocked cells were incubated for 2 hours with TIP1-FITC (25 μM; Peptron, Inc., Daejeon, Korea), p-p65, TLR4, Myd88, TOM20 (1:1000; Santa Cruz Biotechnology Inc.), and NLRP3 (Adipogen) antibodies. Then, washing with PBS was performed three times. Subsequently, the cells were incubated with AlexaFluor […] and/or 488 and/or 546-conjugated secondary antibodies (Invitrogen, Carlsbad, Calif., USA) for 1 hour, and washed three times with PBS. Subsequently, the cells were stained at room temperature for 15 minutes using 5 μM Hoechst 33258 (Sigma-Aldrich Co.), and the number of the fluorescently stained cells was counted using a confocal laser scanning microscope (LSM-700, Carl Zeiss MicroImaging GmbH). The images were analyzed using Zen 2009 software.
The results are illustrated in FIG. 3.

T2 sequence (O00206 24-839): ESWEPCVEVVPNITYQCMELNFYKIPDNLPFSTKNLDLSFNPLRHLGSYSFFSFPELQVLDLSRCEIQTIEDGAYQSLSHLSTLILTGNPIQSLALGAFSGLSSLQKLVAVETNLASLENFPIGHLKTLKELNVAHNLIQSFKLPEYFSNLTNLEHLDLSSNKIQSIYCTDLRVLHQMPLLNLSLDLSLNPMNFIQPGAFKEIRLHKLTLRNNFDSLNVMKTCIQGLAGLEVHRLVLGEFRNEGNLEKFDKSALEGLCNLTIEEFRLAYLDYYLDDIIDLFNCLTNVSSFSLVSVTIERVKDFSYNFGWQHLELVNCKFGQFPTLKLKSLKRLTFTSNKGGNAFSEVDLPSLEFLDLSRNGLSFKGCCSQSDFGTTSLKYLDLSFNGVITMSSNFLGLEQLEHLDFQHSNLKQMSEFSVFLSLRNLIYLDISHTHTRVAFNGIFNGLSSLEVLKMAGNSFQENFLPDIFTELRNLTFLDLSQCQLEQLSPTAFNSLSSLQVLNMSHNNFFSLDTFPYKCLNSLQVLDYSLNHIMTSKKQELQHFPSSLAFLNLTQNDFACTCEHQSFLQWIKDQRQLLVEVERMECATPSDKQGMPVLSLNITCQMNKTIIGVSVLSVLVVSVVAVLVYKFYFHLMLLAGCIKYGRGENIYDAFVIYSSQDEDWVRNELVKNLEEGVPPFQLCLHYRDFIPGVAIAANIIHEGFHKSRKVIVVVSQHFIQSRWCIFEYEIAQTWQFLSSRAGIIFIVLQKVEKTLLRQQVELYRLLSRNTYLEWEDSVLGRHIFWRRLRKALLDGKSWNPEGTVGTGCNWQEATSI
T2 sequence (Q9Y6Y9 17-160 partner limits assumed): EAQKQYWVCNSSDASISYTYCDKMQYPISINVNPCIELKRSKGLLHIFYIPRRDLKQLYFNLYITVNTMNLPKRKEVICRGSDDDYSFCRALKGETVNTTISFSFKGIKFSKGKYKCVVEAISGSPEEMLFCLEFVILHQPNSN
T1 sequence (Q9EPQ1 26-795): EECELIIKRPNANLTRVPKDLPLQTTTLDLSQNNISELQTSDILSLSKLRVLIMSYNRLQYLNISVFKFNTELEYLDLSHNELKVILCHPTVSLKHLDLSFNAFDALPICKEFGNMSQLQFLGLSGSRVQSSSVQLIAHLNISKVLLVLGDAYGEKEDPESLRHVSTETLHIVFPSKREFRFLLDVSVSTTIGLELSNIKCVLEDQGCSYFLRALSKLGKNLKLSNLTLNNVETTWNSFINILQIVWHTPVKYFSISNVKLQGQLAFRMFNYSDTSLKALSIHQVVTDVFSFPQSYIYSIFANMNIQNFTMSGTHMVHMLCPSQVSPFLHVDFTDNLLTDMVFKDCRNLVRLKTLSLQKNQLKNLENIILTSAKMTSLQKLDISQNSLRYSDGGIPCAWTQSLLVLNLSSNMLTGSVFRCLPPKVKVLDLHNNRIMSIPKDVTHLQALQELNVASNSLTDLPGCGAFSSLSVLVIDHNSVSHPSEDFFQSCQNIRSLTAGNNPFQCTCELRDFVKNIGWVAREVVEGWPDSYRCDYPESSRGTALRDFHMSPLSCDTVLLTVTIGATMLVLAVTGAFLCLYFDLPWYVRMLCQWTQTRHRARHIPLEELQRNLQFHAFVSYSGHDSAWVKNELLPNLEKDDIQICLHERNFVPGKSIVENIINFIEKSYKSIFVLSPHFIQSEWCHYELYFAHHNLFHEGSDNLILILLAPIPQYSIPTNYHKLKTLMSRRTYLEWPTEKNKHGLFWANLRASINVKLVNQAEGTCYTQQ
T1 sequence (Q9QUN7 25-784): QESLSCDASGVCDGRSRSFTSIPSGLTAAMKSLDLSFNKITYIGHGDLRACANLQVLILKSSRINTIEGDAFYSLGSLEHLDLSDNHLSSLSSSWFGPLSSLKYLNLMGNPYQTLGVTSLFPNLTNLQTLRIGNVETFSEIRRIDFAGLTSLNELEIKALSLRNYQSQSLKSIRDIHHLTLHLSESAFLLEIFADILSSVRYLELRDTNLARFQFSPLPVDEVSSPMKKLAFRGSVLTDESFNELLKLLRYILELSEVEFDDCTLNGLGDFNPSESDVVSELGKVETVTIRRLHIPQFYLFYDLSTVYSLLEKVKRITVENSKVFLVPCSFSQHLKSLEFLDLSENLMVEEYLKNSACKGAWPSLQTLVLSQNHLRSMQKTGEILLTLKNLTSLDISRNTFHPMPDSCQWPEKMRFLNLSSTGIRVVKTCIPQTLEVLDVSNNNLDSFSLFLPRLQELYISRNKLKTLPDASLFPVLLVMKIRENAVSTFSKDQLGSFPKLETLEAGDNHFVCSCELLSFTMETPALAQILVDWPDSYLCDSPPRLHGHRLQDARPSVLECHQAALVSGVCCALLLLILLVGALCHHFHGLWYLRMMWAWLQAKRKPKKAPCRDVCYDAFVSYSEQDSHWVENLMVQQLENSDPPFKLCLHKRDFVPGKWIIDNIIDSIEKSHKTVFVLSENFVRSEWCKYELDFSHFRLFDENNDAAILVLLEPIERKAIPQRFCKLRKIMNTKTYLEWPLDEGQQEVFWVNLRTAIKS

## RQIKIWFQNRRMKWKKSHCRVLLI (TIP1)
TLR1/2
  secretion level of TNF-α: decreased
[1]
  Poly(I:C)-induced generation of IFN-β: inhibited
RAW 264.7 cells; DAF-FM
  generation level of NO in the cytoplasm: effectively decreased
RAW 264.7 cells; DCF-DA
  generation level of ROS in the cytoplasm: effectively decreased
hTLR4 (human TLR4); TIP 12.5, 25, 50 μM, then LPS, FIG. 1(a)
  LPS-induced SEAP activity: decreased LPS-induced SEAP activity in a concentration-dependent manner
hTLR4 (human TLR4); together with LPS, FIG. 12(a)
  NF-κB activity (SEAP activity): highest inhibitory effect on NF-κB activity
NLRP3 inflammasome [2]
  secretion level of IL-1β: decreased
[3]
  secretion level of IL-6 in plasma: remarkably decreased
  secretion level of IL-12p40 in plasma: remarkably decreased
  secretion level of TNF-α in plasma: remarkably decreased
NLRP3 inflammasome [4]
  intracellular expression level of NLRP3: remarkably decreased
  intracellular expression level of active caspase-1 (10 kDa): remarkably decreased
  intracellular expression level of mature IL-1β (17 kDa): remarkably decreased
NF-κB (p-p65)
  NF-κB activity (LPS-induced p65 phosphorylation level in the nucleus): NF-κB activity was decreased
